Where two headings read alike, the source gives them in different places. Blank lines part the entries; values can stand above or below the molecule they belong to.
How the values were obtained:
A2A receptor = A2A receptor (Sus scrofa, UniProt K9IW67); experiment: Affinity for the A2A receptor in a pig striatum membrane prep (displacement of tritiated ZM 241385); format: binding
Procedure: Compounds of this invention were assayed to determine their affinity for the A2A receptor in a pig striatum membrane prep. Briefly, 0.2 mg of pig striatal membranes were treated with adenosine deaminase and 50 mM Tris buffer (pH=7.4) followed by mixing. […] After incubation at 23 C for 2 h, then the solutions were filtered using a membrane harvester using multiple washing of the membranes (3×). The filter disks were counted in scintillation cocktail affording the amount of displacement of tritiated ZM by the competitive binding compounds of this invention. Greater than a 5 point curve was used to generate IC50's and the number of experiments is indicated in the column marked in Table 1 below.

human A2A AdoR = human A2A AdoR (Homo sapiens, UniProt P29274); experiment: Competition binding, [3H]ZM241385 binding sites on HEK-hA2AAR cell membranes; details: for Ki: HEK-hA2AAR Cells
Procedure: To make membranes, cells were detached from the culture plates into ice-cold 50 mmol/L Tris-HCI buffer (pH7.4). The cell suspensions were homogenized with Polytron at setting 4 for 30 seconds, and spun at 48,000 g for 15 minutes. The pellets were washed three times by re-suspension in ice-cold Tris-HCI buffer and centrifugation. The final pellet was re-suspended in a small volume of Tris-HCI, aliquoted and frozen at −80° C. until used for receptor binding assays. The protein concentration of membrane suspensions was determined using the Bradford method (Bio-Rad) with bovine serum as standards.
At the end of incubation, bound and free radioligands were separated by filtration through Whatman GF/C glass fiber filters using a Brandel tissue harvester (Gaithersburg, Md.). Triplicate determinations were performed for each concentration of the competing agent.
The affinity (Ki) of various CVT compounds for the A1 and A2A adenosine receptor were determined by their potency to compete for [^3H]CPX (A1) or [^3H]ZM241385 (A2A) binding sites on membranes derived from CHO-hA1AdoR, PC12 or HEK-HA2AAdoR cells.

A2A adenosine receptor = A2A adenosine receptor (Rattus norvegicus, UniProt P30543); experiment: Reversal time of coronary vasodilation after bolus injection in rat isolated perfused hearts
Procedure: Animals were anesthetized by peritoneal injection of a cocktail containing ketamine and xylazine (ketamine 100 mg, xylazine 20 mg/ml). The chest was opened and the heart quickly removed. The heart was briefly rinse in ice-cold Krebs-Henseleit solution (see below), and the aorta cannulated. […] The heart was electrically paced at a fixed cycle length of 340 ms (250 beats/min) using a bipolar electrode place on the left atrium. The electrical stimuli were generated by a Grass stimulator (Model S48, W. Warwick, R.I) and delivered through a Stimuli Isolation Unit (Model SIU5, Astro-Med, Inc., NY) as square-wave pulses of 3 msec in duration and amplitude of at least twice the threshold intensity.
Coronary perfusion pressure (CPP) was measured using a pressure transducer, connected to the aortic cannula via a T-connector positioned approximately 3 cm above the heart. Coronary perfusion pressure was monitored throughout the experiment and recorded either on a chart recorder (Gould Recorder 2200S) or a computerized recording system (PowerLab/4S, ADInstruments Pty Ltd, Australia). Only hearts with CPP ranging from 60 to 85 mmHg (in the absence of drugs) were used in the study.
Protocol: Bolus injections. […] The times to 50% (t 0.5) and 90% (t 0.9) reversal of the decrease in CPP were measured. Each heart was exposed to a maximum of three vasodilators.

A2A AdoR [1] = experiment: Coronary blood flow and reversal time of coronary vasodilation in open-chest anesthetized pigs; details: pig
Procedure: Farm pigs weighing 22-27 kg were used in this study. […] In addition, animals were used in accordance with the guidelines of the University of Kentucky Institutional Animal Care and Use Protocol.
Anesthesia was anesthetized with ketamine (20 mg/kg, i.m.) and sodium pentobarbital (15-18 mg/kg i.v.). Anesthesia was maintained with additional sodium pentobarbital (1.5-2 mg/kg, i.v.) every 15-20 minutes. Ventilation was maintained via a tracheotomy using a mixture of room air and 100% O2. Tidal volume, respiratory rate and fraction of O2 in inspired air were adjusted to maintain normal arterial blood gas (ABG) and pH values. […] Lactate Ringers solution was administered via an ear or femoral vein, at 5-7 ml/kg/min after a initial bolus of 300-400 ml. A catheter was inserted into the femoral artery to monitor arterial blood pressure and to obtain ABG samples.
The heart was exposed through a median sternotomy, and suspended in a pericardial cradle. Left ventricular pressure (LVP) was measured with a 5F high fidelity pressure sensitive tip transducer (Millar Instruments, Houston, Tex.) placed in the left ventricular cavity via the apex and secured with a purse string suture. A segment of the left anterior descending coronary artery (LAD), proximal to the origin of the first diagonal branch, was dissected free of, surrounding tissue. A transmit time perivascular flow probe (Transonic Systems Inc., Ithaca, N.Y.) was placed around this segment to measure coronary blood flow (CBF). Proximal to the flow probe a 24 g modified angiocatheter was inserted for intracoronary infusions. […] A2A AdoR agonists were dissolved in DMSO to produce stock concentrations of 1-5 mM, which were diluted in 0.9% saline and infused at rates of 1-1.5 ml/min. The A2A AdoR agonists were administered intracoronary. To maintain blood pressure constant, phenylephrine was administered intravenously. The phenylephrine stock solution (30 mM) was prepared in distilled water.
Prior to initiating the experiment, a 30-minute stabilization period followed the completion of all instrumentation. After obtaining the baseline hemodynamic data the first intracoronary infusion of an A2A ADOR agonist was initiated. Infusions were maintained for 4-5 minutes to allow LAD CBF to reach a steadystate, after which the infusion was terminated. The time to recovery of 50% (t 0.5) and 90% (t 0.9) of baseline CBF were recorded. Ten to 15 minutes after CBF returned to pre-drug values a second infusion with a different agonist was started. […] The effect of a maximum of three different agonists was determined in each experiment.

human A1 AdoR = molecular target: T1, human A1 AdoR (Homo sapiens, UniProt P30542); experiment: Competition binding, [3H]DPCPX binding sites on CHO-hA1AdoR cell membranes; details: Gpp(NH)p 100 μM
T1 construct: expressed in transfected cells
T1 sequence (P30542 1-326): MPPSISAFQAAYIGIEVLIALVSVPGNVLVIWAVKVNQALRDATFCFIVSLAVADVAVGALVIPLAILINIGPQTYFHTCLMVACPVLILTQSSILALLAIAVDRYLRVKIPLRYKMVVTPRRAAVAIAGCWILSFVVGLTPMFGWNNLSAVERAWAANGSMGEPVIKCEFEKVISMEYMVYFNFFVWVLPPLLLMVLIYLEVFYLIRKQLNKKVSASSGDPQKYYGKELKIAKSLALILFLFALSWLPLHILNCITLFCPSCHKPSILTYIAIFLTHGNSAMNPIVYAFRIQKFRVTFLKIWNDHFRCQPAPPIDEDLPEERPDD

A2A AdoR [2] = molecular target: A2A AdoR (Rattus norvegicus, UniProt P30543); experiment: Increase of coronary conductance in rat isolated perfused hearts
Procedure: (§1) Adult Sprague Dawley rats and Hartley guinea pigs of either sex weighing from 230 to 260 grams and 300 to 350 grams, respectively were used in this study. Animals were anesthetized by peritoneal injection of a cocktail containing ketamine and xylazine (ketamine 100 mg, xylazin 20 mg/ml). The chest was opened and the heart quickly removed. The heart was briefly rinse in ice-cold Krebs-Henseleit solution (see below), and the aorta cannulated. […] The heart was electrically paced at a fixed cycle length of 340 ms (250 beats/min) using a bipolar electrode place on the left atrium. The electrical stimuli were generated by a Grass stimulator (Model S48, W. Warwick, R.I.) and delivered through a Stimuli Isolation Unit (Model SIU5, Astro-Med, Inc., NY) as square-wave pulses of 3-msec in duration and amplitude of at least twice the threshold intensity.
Coronary perfusion pressure (CPP) was measured using a pressure transducer, connected to the aortic cannula via a T-connector positioned approximately 3 cm above the heart. Coronary perfusion pressure was monitored throughout the experiment and recorded either on a chart recorder (Gould Recorder 2200S) or a computerized recording system (PowerLab/4S, ADinstruments Pty Ltd, Australia). Only hearts with CPP ranging from 60 to 85 mmHg (in the absence of drugs) were used in the study.
One concentration was made from the stock solution by dilution into saline to yield solution of either 2×10^−4 or 2×10^−5 M. These solutions were injected into the perfusion line of the apparatus as boluses of 20 μl. In some experiments the solutions were placed into a 30 ml glass syringe and the drugs were infused at rates necessary to achieve the desired perfusate concentrations (e.g, 10, 100 nM, etc).
Hearts were instrumented for continuous recording of coronary perfusion pressure (A2A response) and atrioventricular (A-V) conduction time or S-H interval (A1 response).

A1 AdoR = molecular target: T2, A1 AdoR (Rattus norvegicus, UniProt P25099); experiment: A-V nodal conduction time (negative dromotropic effect) in rat isolated perfused hearts; details: Compound 18 0.1-30 μM, CVT510 100-400 nM
T2 construct: from tissue; host or cells: Sprague Dawley rat isolated perfused heart
T2 sequence (P25099 1-326): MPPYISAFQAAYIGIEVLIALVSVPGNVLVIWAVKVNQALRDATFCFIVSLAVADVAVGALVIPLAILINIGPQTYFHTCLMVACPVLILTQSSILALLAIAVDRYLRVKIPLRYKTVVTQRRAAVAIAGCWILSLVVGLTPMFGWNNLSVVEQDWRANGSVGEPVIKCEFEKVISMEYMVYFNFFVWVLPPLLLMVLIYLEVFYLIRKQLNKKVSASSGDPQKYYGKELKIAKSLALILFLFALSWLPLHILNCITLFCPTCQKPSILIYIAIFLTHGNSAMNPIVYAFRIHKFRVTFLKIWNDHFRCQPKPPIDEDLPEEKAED
Procedure: In experiments in which A1 adenosine receptor-mediated negative dromotropic effect was measured, atrial and ventricular surface electrograms were recorded during constant atrial pacing. The effect of various adenosine receptor agonists on atrioventricular conduction time was determined as described previously by Jenkins and Belardinelli Circ. Res. 63: 97-116 (1988).
Rats and guinea pigs, of either sex weighing from 230 to 260 grams and 300 to 350 grams, respectively, were used in this study. Animals were anesthetized by peritoneal injection of a cocktail containing ketamine and xylazine (ketamine 100 mg, xylazine 20 mg/ml). The chest was opened and the heart quickly removed. The heart was briefly rinse in ice-cold Krebs-Henseleit solution (see below), and the aorta cannulated. […]
A1 adenosine receptor-mediated depression of A-V nodal conduction time (negative dromotropic effect) was measured. Atrial and ventricular surface electrograms in rats and H is bundle electrogram in guinea pigs, were recorded during constant atrial pacing. The effects of Compound 18 on atrioventricular conduction time and stimulus-to-His-bundle (S-H interval) were determined as described previously by Jenkins and Belardinelli (1988).
The effects of Compound 18 on coronary conductance (A2A effect) and atrioventricular conduction time or stimulus-to-His-bundle (S-H) interval (A1 effect) was then determined. […]

A2A AdoR [3] = molecular target: A2A AdoR (Cavia porcellus, UniProt P46616); experiment: Increase of coronary conductance in guinea pig isolated perfused hearts
Procedure: as §1
Coronary perfusion pressure (CPP) was measured using a pressure transducer, connected to the aortic cannula via a T-connector positioned approximately 3 cm above the heart. Coronary perfusion pressure was monitored throughout the experiment and recorded either on a chart recorder (Gould Recorder 2200S) or a computerized recording system (PowerLab/4S, ADinstruments Pty Ltd, Australia). Only hearts with CPP ranging from 60 to 85 mmHg (in the absence of drugs) were used in the study. […]

[4] = pig striatal membranes, tritiated ZM 241385 2 nM, 23 C 2 h, read-out: A2a Ki
[5] = rat isolated perfused hearts, bolus into perfusion line
[6] = intracoronary infusion 1 μg/kg/min
[7] = intracoronary infusion 30 μg/kg/min
[8] = intracoronary infusion 2 μg/kg/min

Sequence of human A2A AdoR (P29274 whole entry, the tested form may be a part): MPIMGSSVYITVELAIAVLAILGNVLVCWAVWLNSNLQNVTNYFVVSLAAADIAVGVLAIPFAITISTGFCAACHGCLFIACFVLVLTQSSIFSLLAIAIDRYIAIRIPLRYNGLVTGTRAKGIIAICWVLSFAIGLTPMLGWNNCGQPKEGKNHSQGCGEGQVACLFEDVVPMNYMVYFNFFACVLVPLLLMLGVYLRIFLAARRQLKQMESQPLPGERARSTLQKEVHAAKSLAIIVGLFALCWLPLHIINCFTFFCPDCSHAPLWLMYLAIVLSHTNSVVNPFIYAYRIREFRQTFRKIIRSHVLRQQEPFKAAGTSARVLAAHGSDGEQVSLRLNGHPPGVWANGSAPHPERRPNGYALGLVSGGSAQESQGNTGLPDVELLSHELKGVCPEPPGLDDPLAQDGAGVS
Sequence of A2A adenosine receptor (P30543 whole entry, the tested form may be a part): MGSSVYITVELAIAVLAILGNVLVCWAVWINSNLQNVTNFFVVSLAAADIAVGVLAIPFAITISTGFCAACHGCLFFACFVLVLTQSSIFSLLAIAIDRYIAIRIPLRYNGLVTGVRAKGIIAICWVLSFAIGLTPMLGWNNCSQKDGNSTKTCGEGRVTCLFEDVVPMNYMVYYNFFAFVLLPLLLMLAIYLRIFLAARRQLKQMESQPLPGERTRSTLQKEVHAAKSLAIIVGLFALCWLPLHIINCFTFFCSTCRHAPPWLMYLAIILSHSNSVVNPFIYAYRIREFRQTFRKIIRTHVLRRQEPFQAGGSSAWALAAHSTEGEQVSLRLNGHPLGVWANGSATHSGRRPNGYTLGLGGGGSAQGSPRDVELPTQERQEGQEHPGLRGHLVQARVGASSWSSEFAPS
Sequence of A2A AdoR (Rattus norvegicus, UniProt P30543) (P30543 whole entry, the tested form may be a part): as above
Sequence of A2A receptor (K9IW67 1-409): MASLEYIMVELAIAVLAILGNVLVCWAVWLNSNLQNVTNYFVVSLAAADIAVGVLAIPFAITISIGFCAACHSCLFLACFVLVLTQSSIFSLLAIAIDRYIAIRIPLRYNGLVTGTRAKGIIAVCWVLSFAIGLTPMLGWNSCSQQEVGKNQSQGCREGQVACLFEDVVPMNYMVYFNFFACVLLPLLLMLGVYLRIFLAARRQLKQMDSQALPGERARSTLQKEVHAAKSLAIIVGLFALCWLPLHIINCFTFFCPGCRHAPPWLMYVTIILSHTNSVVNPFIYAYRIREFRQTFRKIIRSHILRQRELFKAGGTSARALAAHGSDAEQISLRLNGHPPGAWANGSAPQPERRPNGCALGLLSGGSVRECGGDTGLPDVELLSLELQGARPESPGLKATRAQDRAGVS
Sequence of A2A AdoR (Cavia porcellus, UniProt P46616) (P46616 whole entry, the tested form may be a part): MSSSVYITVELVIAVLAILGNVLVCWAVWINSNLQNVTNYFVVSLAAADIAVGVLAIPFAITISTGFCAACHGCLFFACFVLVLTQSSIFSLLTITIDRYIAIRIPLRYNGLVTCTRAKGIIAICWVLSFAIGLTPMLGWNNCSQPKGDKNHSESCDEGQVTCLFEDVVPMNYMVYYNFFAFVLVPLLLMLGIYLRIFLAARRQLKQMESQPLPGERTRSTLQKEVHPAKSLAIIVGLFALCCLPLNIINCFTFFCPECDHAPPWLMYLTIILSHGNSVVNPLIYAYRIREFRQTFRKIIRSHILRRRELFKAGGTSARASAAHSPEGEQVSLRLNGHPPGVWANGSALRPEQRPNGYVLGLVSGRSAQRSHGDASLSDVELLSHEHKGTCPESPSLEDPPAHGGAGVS

- Ki (A2A receptor; [4]): > 10 µM
SMILES: Cn1cc(-c2nc(N)c3ncn([C@@H]4O[C@H](CO)[C@@H](O)[C@H]4O)c3n2)cn1 [Compound 19, (4S,2R,3R,5R)-2-[6-amino-2-(1-methylpyrazol-4-yl)purin-9-yl]-5-(hydroxymethyl)oxolane-3,4-diol]

- Ki (A2A receptor; [4]): ~10 µM
SMILES: CC(C)n1cc(-c2nc(N)c3ncn([C@@H]4O[C@H](CO)[C@@H](O)[C@H]4O)c3n2)cn1 [Compound 20, (4S,2R,3R,5R)-2-{6-amino-2-[1-(methylethyl)pyrazol-4-yl]purin-9-yl}-5-(hydroxymethyl)oxolane-3,4-diol]

SMILES: CC(C)n1cc(-c2nc(N)c3ncn([C@@H]4O[C@H](CO[Si](C)(C)C(C)(C)C)[C@@H](O[Si](C)(C)C(C)(C)C)[C@H]4O[Si](C)(C)C(C)(C)C)c3n2)cn1 [Compound 16, 9-{(2R,3R,4R,5R)-3,4-bis(1,1,2,2-tetramethyl-1silapropoxy)-5-[(1,1,2,2-tetramethyl-1-silapropoxy)methyl]oxolan-2-yl}-2-[1-(1-methylethyl)pyrazol 4-yl]purine-6-ylamine]
- A2A affinity (human A2A AdoR; conclusion of Example 5): low affinity A2A agonist

- Ki (A2A receptor; [4]): > 100 µM
SMILES: Nc1nc(-c2cn[nH]c2)nc2c1ncn2[C@@H]1O[C@H](CO)[C@@H](O)[C@H]1O [Compound 23, (4S,2R,3R,5R)-2-(6-amino-2-pyrazol-4-ylpurin-9-yl)-5-(hydroxymethyl)oxolane-3,4-diol]

- t 0.5, time to 50% reversal of the increase in coronary conductance (A2A adenosine receptor; [5]): 28.6 ± 1.1 min
- t 0.9, time to 90% reversal of the increase in coronary conductance (A2A adenosine receptor; [5]): 32.8 ± 3.1 min
SMILES: CCCCC#Cc1nc(N)c2ncn([C@@H]3O[C@H](C(=O)NCC)[C@@H](O)[C@H]3O)c2n1 [HENECA, reference compound]

- t 0.5, time to 50% reversal of the increase in coronary conductance (A2A adenosine receptor; [5]): 17.7 ± 1.0 min
- t 0.9, time to 90% reversal of the increase in coronary conductance (A2A adenosine receptor; [5]): 28.5 ± 4.0 min
SMILES: CCCCCCC#Cc1nc(N)c2ncn([C@@H]3O[C@H](CO)[C@@H](O)[C@H]3O)c2n1 [YT-146, reference compound]
- CBF ("Fold Increase") above baseline, maximal (A2A AdoR [1]; [6]): 3.44 ± 0.47 fold
- t0.9, time to 90% reversal of the increase in coronary blood flow (A2A AdoR [1]; [6]): 32.9 ± 5.6 min

SMILES: Nc1nc(-c2cnn(CCCc3ccccc3)c2)nc2c1ncn2C1O[C@H](CO)[C@@H](O)[C@H]1O (stereo partly drawn) [Compound 21, (4S,2R,3R,5R)-2-{6-amino-2-[1-(3-phenylpropyl)pyrazolyl-4-yl]purin-9-yl}-5-(hydroxymethyl)oxolane-3,4-diol]
- Ki (A2A receptor; [4]): 6.13 ± 0.582 µM
- t 0.5, time to 50% reversal of the increase in coronary conductance (A2A adenosine receptor; [5]): 8.3 ± 0.4 min
- t 0.9, time to 90% reversal of the increase in coronary conductance (A2A adenosine receptor; [5]): 12.6 ± 0.4 min

SMILES: Nc1nc(-c2cnn(Cc3ccccc3)c2)nc2c1ncn2[C@@H]1O[C@H](CO)[C@@H](O)[C@H]1O [Compound 12, (4S,2R,3R,5R)-2-{6-amino-2-[1-benzylpyrazol-4-yl]purin-9-yl}-5-(hydroxymethyl)oxolane-3,4-diol]
- Ki (A2A receptor): 6.67 ± 1.12 µM
- CBF ("Fold Increase") above baseline, maximal (A2A AdoR [1]; [7]): 3.78 ± 0.70 fold
- t0.5, time to 50% reversal of the increase in coronary blood flow (A2A AdoR [1]; [7]): 2.3 ± 0.6 min
- t0.9, time to 90% reversal of the increase in coronary blood flow (A2A AdoR [1]; [7]): 9.6 ± 1.0 min
- Ki (human A1 AdoR; read-out: Binding Affinity Ki, CHO-hA1AR): 6.35 µM
- Ki (human A1 AdoR; read-out: Binding Affinity pKi ± SEM, CHO-hA1AR (converted)): 6.03 µM
- Ki (human A2A AdoR; Binding Affinity Ki): 13.7 µM
- Ki (human A2A AdoR; Binding Affinity pKi ± SEM): 13.5 µM
- effect on coronary conductance (A2A AdoR [2]): concentration-dependent increase
- relative potency in increasing coronary conductance (A2A AdoR [2]): about as potent as adenosine
- t 0.5, time to 50% reversal of the increase in coronary conductance (A2A adenosine receptor): 4.1 ± 0.3 min
- t 0.9, time to 90% reversal of the increase in coronary conductance (A2A adenosine receptor): 9.8 ± 1.4 min

SMILES: OC[C@H]1OC(n2cnc3c(N[C@@H]4CCOC4)ncnc32)[C@H](O)[C@@H]1O (stereo partly drawn) [CVT510, 2-{6-[((3R)oxolan-3-yl)amino]purin-9-yl}(4S,3R,5R)-5-(hydroxymethyl)oxolane-3,4-diol, reference compound]
- effect on A-V nodal conduction time (A1 AdoR): significantly prolonged

SMILES: CCNC(=O)[C@H]1O[C@@H](n2cnc3c(N)nc(NCCc4ccc(CCC(=O)O)cc4)nc32)[C@H](O)[C@@H]1O [CGS21680, reference compound]
- t0.5, time to 50% reversal of the increase in coronary blood flow (A2A AdoR [1]; [8]): 9.7 ± 0.8 min
- t0.9, time to 90% reversal of the increase in coronary blood flow (A2A AdoR [1]; [8]): 21.4 ± 0.8 min

SMILES: Nc1nc(N/N=C/C2CCCCC2)nc2c1ncn2[C@@H]1O[C@H](CO)[C@@H](O)[C@H]1O [WRC-0470, reference compound]
- t0.5, time to 50% reversal of the increase in coronary blood flow (A2A AdoR [1]; [6]): 9.5 ± 0.8 min
- t0.9, time to 90% reversal of the increase in coronary blood flow (A2A AdoR [1]; [6]): 22.5 ± 1.6 min
- EC50 (A2A AdoR [3]): 0.0024 ± 0.0011 µM
- EC50 (A2A AdoR [2]): 0.0006 ± 0.0002 µM
- effect on coronary conductance (A2A AdoR [2]): concentration-dependent increase
- t 0.5, time to 50% reversal of the increase in coronary conductance (A2A adenosine receptor): 21.9 ± 0.9 min
- t 0.9, time to 90% reversal of the increase in coronary conductance (A2A adenosine receptor): 27.9 ± 1.4 min

- Ki (A2A receptor; [4]): 7.68 µM
SMILES: CC(C)(C)c1ccc(Cn2cc(-c3nc(N)c4ncn([C@@H]5O[C@H](CO)[C@@H](O)[C@H]5O)c4n3)cn2)cc1 [Compound 22, (4S,2R,3R,5R)-2-{6-amino-2-[1-(4-t-butylbenzyl)pyrazol-4-yl]purin-9-yl}-5-(hydroxymethyl)oxolane-3,4-diol]

— patent US7553823B2, “C-pyrazole A2A receptor agonists” (CV Therapeutics, Inc., priority 1999, dated 2009)
